Measurements published in PubChem BioAssay (NCI).
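Tested at 5 concentrations; 48 h exposure; 96-well plates; endpoints linearly interpolated, else capped at highest concentration. GI50 is the concentration that inhibits growth by half. TGI: concentration producing complete growth inhibition.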

What was measured:
Test in all cases: inhibition of tumour cell growth, NCI panel, 48 h
786-0 renal = test system: 786-0 renal
A549 NSCLC = test system: A549 NSCLC
CAKI-1 renal = test system: CAKI-1 renal
MOLT-4 leukemia = test system: MOLT-4 leukemia
OVCAR-4 ovarian = test system: OVCAR-4 ovarian
SK-MEL-5 melanoma = test system: SK-MEL-5 melanoma
UACC-257 melanoma = test system: UACC-257 melanoma
UO-31 renal = test system: UO-31 renal
MDA-MB-231 breast = test system: MDA-MB-231 breast
T-47D breast = test system: T-47D breast

Structure (SMILES)	TGI (786-0 renal) [µM]	TGI (A549 NSCLC) [µM]	TGI (CAKI-1 renal) [µM]	TGI (MOLT-4 leukemia) [µM]	TGI (OVCAR-4 ovarian) [µM]	TGI (SK-MEL-5 melanoma) [µM]	TGI (UACC-257 melanoma) [µM]	TGI (UO-31 renal) [µM]	GI50 (786-0 renal) [µM]	GI50 (MDA-MB-231 breast) [µM]	TGI (MDA-MB-231 breast) [µM]	GI50 (MOLT-4 leukemia) [µM]	GI50 (OVCAR-4 ovarian) [µM]	GI50 (T-47D breast) [µM]	TGI (T-47D breast) [µM]	GI50 (UACC-257 melanoma) [µM]	GI50 (UO-31 renal) [µM]	GI50 (A549 NSCLC) [µM]	GI50 (CAKI-1 renal) [µM]	GI50 (SK-MEL-5 melanoma) [µM]
COc1cccc(/C=C(/C(=O)O)c2cc(OC)c(OC)c(OC)c2)c1	> 100	> 100	> 100	> 100	> 100	> 100	> 100	> 100												
CC1(C)CCC(=O)c2c(O)ccc(O)c21	> 100	> 100	> 100	> 100	> 100	> 100	81.9	> 100												
C#C[C@@]1(O)[C@@H](CO)O[C@@H](n2cc(Cl)c3c(N)ncnc32)[C@@H]1O	1.33			> 26.4	3.34		> 79.9	1.78	0.322	0.169	0.951	0.17	0.323	0.0573	0.489	0.347	0.173			
CSc1nc(NC2OCC(OC(C)=O)C(OC(C)=O)C2OC(C)=O)c(N=CC=Nc2c(NC3OCC(OC(C)=O)C(OC(C)=O)C3OC(C)=O)nc(SC)n(C)c2=O)c(=O)n1C (stereo not drawn)	> 100	> 100			> 100	> 100	> 100	> 100												
CC(=O)[CH-]C(=O)c1ccccc1.CC(=O)[CH-]C(=O)c1ccccc1.O=C([O-])C[O-].O=C([O-])C[O-].[Ti+4]	> 100	> 100	> 100	> 100	> 100	> 100	> 100	> 100	71.7			27.7	41			43.1	71.4	18.2	54.5	31.9
CCCCCCCCN(CCCCCCCC)C(=N)c1ccnc2ccccc12	2.37	3.11	2.44		2.6		3.35	2.29	1.02				1.2	1.24	2.93	1.75	0.953	1.58	1.17	
Nn1c(CCCl)nc2c(Br)cc(Br)cc2c1=O	81	> 100	> 93.2	61.3	69.3	37.8	> 100	> 75.6												
CCOC(=O)/C(=C/c1ccc(OC)c(OC)c1)C(=O)c1ccccc1	> 100	90.2	31.8	48.9	60.3	29.5	33.2	27.5												
C/C(CC(=O)CCCC(=O)Nc1ccc(Cl)cc1Cl)=N/NC(=O)CC#N	> 100	> 100	> 100	> 100	> 100	> 100	> 100	> 100												
Cc1cc(C)c(C(=O)O)c(N)c1O	> 100	> 100	> 100	> 100	> 100	> 100	> 100	> 100												
